Results on two compounds are retold here after patent US11066389B2, “Process for the manufacturing of medicaments” (Genentech, Inc., priority 2014, dated 2021).

Some results are limits rather than exact numbers.

Holding throughout (assay type): physicochemical
A short description of series [1]: pKa determination of the free base (salt screen). How it is done:
A salt screen was conducted to determine if a suitable salt form could be discovered. The pKa of the free base was determined to be less than 2, which limited the range of possible salt coformers. In addition, salts derived from (S)-1-(1-(4-chloro-3-fluorophenyl)-2-hydroxyethyl)-4-(2-((1-methyl-1H-pyrazol-5-yl)amino)pyrimidin-4-yl)pyridin-2(1H)-one free base would have a pHmax less than 2 and would be expected to disproportionate in water. Thus, it was not clear that a crystalline salt could be prepared or that any salt would have acceptable exposure in vivo (an aqueous environment). […] Eventually crystalline salts were obtained from 1,5-naphthalenedisulfonic acid, p-toluenesulfonic acid and benzenesulfonic acid.

A short description of series [2]: Hygroscopicity, automated vapor sorption (DVS). To be noted: salt form; lower than the tosylate and 1,5-naphthalenedisulfonic acid salt forms; vapor sorption at 25° C., 5 to 95% RH. The method, then: Automated vapor sorption data were collected on a TA Instruments Q5000SA vapor sorption analyzer. NaCl and PVP were used as calibration standards. Samples were not dried prior to analysis. Adsorption and desorption data were collected at 25° C. over a range from 5 to 95% RH at 10% RH increments under a nitrogen purge. Samples were held at the corresponding RH for 1 hour prior to moving to the next RH range. Data were not corrected for the initial moisture content of the samples.

The nature of series [3]: Solid-form stability against disproportionation in the presence of water. To be noted: compared to the tosylate and naphthalenesulfonic acid salt forms.

As usually defined, the pKa is the pH at which an ionisable group is half protonated.

For `Cn1nccc1Nc1nccc(-c2ccn([C@H](CO)c3ccc(Cl)c(F)c3)c(=O)c2)n1` [VIII, (S)-1-(1-(4-chloro-3-fluorophenyl)-2-hydroxyethyl)-4-(2-(1-methyl-1H-pyrazol-5-ylamino)pyrimidin-4-yl)pyridin-2(1H)-one], in series [1], the pKa was less than 2 and the “pKa of the free base” value is “less than 1.8”.

Turning to `Cn1nccc1Nc1nccc(-c2ccn([C@H](CO)c3ccc(Cl)c(F)c3)c(=O)c2)n1.O=S(=O)(O)c1ccccc1` [besylate salt, (S)-1-(1-(4-Chloro-3-fluorophenyl)-2-hydroxyethyl)-4-(2-((1-methyl-1H-pyrazol-5-yl)amino)pyrimidin-4-yl)pyridin-2(1H)-one, Benzenesulfonate Salt], in series [2], the hygroscopicity result is listed as “non-hygroscopicity”. Also, the stability result in series [3] is listed as “enhanced stability”.
